The text below walks through data of ChEMBL document CHEMBL1149587 (2007).

Type in all cases: functional
Assay [1] deals with Rattus norvegicus. Description: Elimination of D-xylose from 15 days old Sprague-Dawley suckling rat urine at 4 mg, po.
The test system of assay [2] is Rattus norvegicus. Description: Elimination of D-xylose from 30 days old Sprague-Dawley suckling rat urine at 4 mg, po.
Assay [3] concerns Rattus norvegicus. Description: Elimination of D-xylose from 18 days old Sprague-Dawley suckling rat urine at 4 mg, po.

Molecules are shown by their SMILES.

On to `OC[C@H]1O[C@@H](O[C@H]2[C@H](O)COC(O)[C@@H]2O)[C@H](O)[C@@H](O)[C@H]1O` (some centres undefined), for which the Activity is recorded as 23.3% in the assay on Rattus norvegicus [1], 19.39% in the assay on Rattus norvegicus [2] and 20.63% in the assay on Rattus norvegicus [3].

With `OC[C@H]1O[C@@H](O[C@H]2C(O)OC[C@@H](O)[C@@H]2O)[C@H](O)[C@@H](O)[C@H]1O` (some centres undefined), the figures for the Activity in the assay on Rattus norvegicus [1], with Rattus norvegicus [2] and in the assay with Rattus norvegicus [3] were 23.1%, 9.43% and 20.71%, respectively.

Consider `OC[C@H]1O[C@@H](O[C@@H]2COC(O)[C@H](O)[C@H]2O)[C@H](O)[C@@H](O)[C@H]1O` (some centres undefined), for which the figures for the Activity in the assay with Rattus norvegicus [1], in the assay with Rattus norvegicus [2] and in the assay on Rattus norvegicus [3] were 23.66%, 3.05% and 6.99%, respectively.
